According to patent US20130071535A1, “FOOD AND FLAVORANT COMPOSITIONS COMPRISING RENEWABLY-BASED, BIODEGRADABLE 1,3-PROPANEDIOL” (DuPont Tate & Lyle Bio Products Company, LLC, priority 2006, published 2013):

How the values were obtained:
Viscosity of formulation = type: physicochemical; settings: cosmetic emulsion of Example 1 with other glycol instead of Bio-PDO
human skin [1] = experiment: Second human skin patch test; type: in vivo
Text: (§1) Based on these studies PDO is not expected to be a skin irritant or sensitizer in humans.

human skin [2] = experiment: Human skin patch test (first); type: in vivo; settings: approximately 100 subjects; 5, 25, and 50% PDO
Text: as §1

SMILES	viscosity of the cosmetic emulsion with the comparison glycol (Viscosity of formulation) [cps]	patch test irritation and cumulative irritation for human skin (human skin [1]; 25, 50, and 75% (pH 7))	skin reactions indicative of irritation or sensitization (human skin [2])	clinically significant dermal irritation or sensitization reactions (human skin [1]; 25, 50, and 75% PDO at pH 7, or 75% PDO at pH 4 and 9)
CC(CO)CO [2-methyl-1,3-propanediol]	9600			
CC(O)CCO (stereo not drawn) [1,3-butylene glycol]	6000			
CC(O)CO (stereo not drawn) [propylene glycol]	12600	patch test irritants and cumulative irritants		
OCCCO [Bio-PDO, 1,3-propanediol]			did not cause any skin reactions indicative of irritation or sensitization	did not produce any clinically significant dermal irritation or sensitization reactions
